For orientation: IC50 means the concentration at which inhibition is half-maximal. As usually defined, the CC50 is the concentration that lowers cell viability or growth by half. Low values mean harm at low concentration, high ones better tolerance by the cells.

Like-named read-outs stand apart in the source and are kept apart here. A value given as a limit tells only on which side of the number the result lay.

What all share (format): cell-based
Series [1] concerns LPS-induced nitric oxide (NO) production in RAW264.7 macrophages. In words: Inhibition of LPS-induced NO production in RAW264.7 macrophages (anti-inflammatory assay). Particulars: LPS-stimulated, read-out: IC50 (μM), anti-inflammatory activity against LPS-stimulated NO production. The protocol: All isolates were evaluated for their anti-inflammatory activities against LPS-induced NO production in RAW264.7 macrophages (Table 3). […] This experiment was conducted according the reported procedure.

In a further series the test system is RAW 264.7 macrophages. In words: Cytotoxicity (CC50) in RAW 264.7 macrophages. The protocol:
(§1) This experiment was conducted according the reported procedure.

Series [2] can be described thus: Cytotoxicity (CC50) in RAW 264.7 macrophages. Particulars: mouse. The procedure: as §1
Setting [3] is: Mus musculus, RAW264.7, RAW 264.7 macrophages.

Consider `C=C(C)C1CCC(C)(O)C2CC(O)C(C)C2C1` [Compound 3, (1R,3S,4R,5R,7R,10R)-11(13)-en-3,10-dihydroxyguaiene], for which, in series [1] (RAW 264.7 macrophages), the IC50 amounted to 113 µM. The same compound had a CC50 in the series on RAW 264.7 macrophages of over 50 µM.

Consider `C[C@@H]1[C@@H]2C[C@H]([C@](C)(O)CO)CC[C@@](C)(O)[C@@H]2C[C@@H]1O` [Compound 12, (1R,3S,4R,5S,7R,10R,11S)-guaiane-3,10,11,12-tetraol], for which, in series [1] (setting [3]), the IC50 turned out to be 122 µM. In series [2], this compound came in with a CC50 of over 50 µM.

For `C[C@H]1CC[C@@H]2[C@H]1C[C@H]([C@@H](C)C(=O)O)CC[C@@]2(C)O` [Compound 9, (1R,4S,5S,7R,10R,11R)-10-hydroxyguai-12-oic acid], the half-maximal inhibitory concentration (IC50) in series [1] (setting [3]) turned out to be 79.1 µM. The compound further registered a half-maximal cytotoxic concentration (CC50) in series [2] of over 50 µM.

Turning to `C[C@H]1CC[C@@H]2[C@H]1C[C@H]([C@](C)(O)CO)CC[C@@]2(C)O` [Compound 11, (1R,4S,5S,7R,10R,11S)-guaiane-10,11,12-triol], in series [1] (setting [3]), the IC50 was determined as 141 µM. The CC50 in series [2] is over 50 µM.

`C[C@](O)(CO)[C@@H]1CC[C@@](C)(O)[C@@H]2CC[C@@](C)(O)[C@@H]2C1` [Compound 8, (1R,4R,5R,7R,10R)-4,10,11-trihydroxyguaiane]: in series [1] (setting [3]), the 50% inhibitory concentration (IC50) amounted to 166 µM. The compound further displayed a CC50 in series [2] of over 50 µM.

Turning to `N=C(N)NN` [Aminoguanidine, aminoguanidine, reference compound], the IC50 in series [1] (RAW 264.7 macrophages) came out at 23.4 µM. The same compound registered a CC50 in the series with RAW 264.7 macrophages of over 50 µM.

In the case of `C=C(C)C1CCC(C)(O)C2CCC(C)C2C1` [Compound 2, (1R,4S,5S,7R,10R)-11(13)-en-10-hydroxyguaiene], in series [1] (setting [3]), the 50% inhibitory concentration (IC50) was determined as 103 µM. In series [2], this compound yielded a CC50 of over 50 µM.

Consider `C[C@H]1CC[C@@H]2[C@H]1C[C@H]([C@@](C)(O)CO)C[C@@H](O)[C@@]2(C)O` [Compound 13, (1R,4S,5S,7S,9R,10S,11R)-guaiane-9,10,11,12-tetraol], for which the IC50 in series [1] (setting [3]) was found to be 88.2 µM. The CC50 in series [2] is over 50 µM.

In the case of `C[C@H]1C[C@H](O)[C@@H]2[C@H]1C[C@H]([C@@](C)(O)CO)CC[C@@]2(C)O` [Compound 10, (1S,2S,4S,5S,7R,10R)-guaiane-2,10,11,12-tetraol], the IC50 in series [1] (setting [3]) turned out to be 150 µM. The same compound displayed a cytotoxic concentration (CC50) in series [2] of over 50 µM.

For `C=C(C)C1CCC(C)(O)C2C(O)CC(C)C2C1` [Compound 5, (1S,2S,4S,5S,7R,10R)-11(13)-en-2,10-dihydroxyguaiene], the half-inhibitory concentration (IC50) in series [1] (setting [3]) was 138 µM. In series [2], this compound yielded a CC50 of over 50 µM.

`C=C(C)[C@@H]1CC[C@@](C)(O)[C@@H]2CC(=O)[C@H](C)[C@H]2C1` [Compound 4, (1R,4S,5S,7R,10R)-3-oxo-11(13)-en-10-hydroxyguaiene]: the half-maximal inhibitory concentration (IC50) in series [1] (setting [3]) is 72.9 µM. In addition, in series [2], the half-maximal cytotoxic concentration (CC50) is over 50 µM.

Regarding `CC(=O)OCC(C)(O)C1CCC(C)(O)C2C(O)CC(C)C2C1` [Compound 7, (1S,2S,4S,5S,7R,10R,11R)-12-acetyl-2,10,11-trihydroxyguaiane], the 50% inhibitory concentration (IC50) in series [1] (setting [3]) amounted to 101 µM. In series [2], this compound gave a 50% cytotoxic concentration (CC50) of over 50 µM.

As for `C=C(CO)[C@@H]1CC[C@@](C)(O)[C@H]2[C@@H](C1)[C@@H](C)C[C@@H]2O` [Compound 6, (1S,2S,4S,5S,7R,10R)-11(13)-en-2,10,12-trihydroxyguaiene], the half-inhibitory concentration (IC50) in series [1] (setting [3]) came out at 14.2 µM. In series [2], the CC50 was over 50 µM.

`C=C(C)C1CCC(C)(O)C2CC(O)C(C)C2C1` [Compound 1, (1R,3R,4R,5S,7R,10R)-11(13)-en-3,10-dihydroxyguaiene]: in series [1] (RAW 264.7 macrophages), the IC50 came out at 310 µM. In series [2], this compound registered a cytotoxic concentration (CC50) of over 50 µM.

(Values after article PMC5765142, “New anti-inflammatory guaianes from the Atlantic hydrotherm-derived fungus Graphostroma sp. MCCC 3A00421” (Scientific Reports, 2018).)
